The source made the active and inactive calls. The rule behind the calls is not given here.
Legend:
[1] = target: Glycogen synthase kinase-3 beta (Homo sapiens, UniProt P49841); assay: Inhibition of GSK3-beta by luminescent assay
Bacillus subtilis = assay: Antimicrobial activity against Bacillus subtilis DSM 347; format: functional, organism-based
Erwinia amylovora = assay: Antimicrobial activity against Erwinia amylovora DSM 50901; format: functional, organism-based
Escherichia coli = assay: Antimicrobial activity against Escherichia coli K-12 DSM 498; format: functional, organism-based
Pseudomonas fluorescens = assay: Antimicrobial activity against Pseudomonas fluorescens NCIMB 10586; format: functional, organism-based
Cutibacterium acnes = assay: Antimicrobial activity against Propionibacterium acnes DSM 1897; format: functional, organism-based
Pseudomonas aeruginosa = assay: Antimicrobial activity against Pseudomonas aeruginosa DSM 50071; format: functional, organism-based
[2] = test system: Pseudomonas syringae pv. aptata str. DSM 50252; assay: Antimicrobial activity against Pseudomonas syringae pv aptata DSM 50252; format: functional
Ralstonia solanacearum = assay: Antimicrobial activity against Ralstonia solanacearum DSM 9544; format: functional, organism-based
[3] = test system: Staphylococcus epidermidis; assay: Antimicrobial activity against Staphylococcus epidermidis DSM 20044; format: functional, organism-based
Mammaliicoccus lentus = assay: Antimicrobial activity against Staphylococcus lentus DSM 6672; format: functional, organism-based
Xanthomonas campestris = assay: Antimicrobial activity against Xanthomonas campestris DSM 2405; format: functional, organism-based
Nakaseomyces glabratus = assay: Antimicrobial activity against Candida glabrata DSM 6425; format: functional, organism-based
Zymoseptoria tritici = assay: Antimicrobial activity against Septoria tritici; format: functional, organism-based
[4] = Cytotoxicity against mouse NIH/3T3 cells after 24 hrs by celltiter-blue assay; format: cell-based; details: nih3t3, 24 h
HepG2 = assay: Cytotoxicity against human HepG2 cells after 24 hrs by celltiter-blue assay; format: functional, cell-based
HT-29 = assay: Cytotoxicity against human HT-29 cells after 24 hrs by celltiter-blue assay; format: functional, cell-based
Parastagonospora nodorum = assay: Antimicrobial activity against Septoria nodorum; format: functional, organism-based

Glycogen synthase kinase-3 beta, sequence (P49841 whole entry): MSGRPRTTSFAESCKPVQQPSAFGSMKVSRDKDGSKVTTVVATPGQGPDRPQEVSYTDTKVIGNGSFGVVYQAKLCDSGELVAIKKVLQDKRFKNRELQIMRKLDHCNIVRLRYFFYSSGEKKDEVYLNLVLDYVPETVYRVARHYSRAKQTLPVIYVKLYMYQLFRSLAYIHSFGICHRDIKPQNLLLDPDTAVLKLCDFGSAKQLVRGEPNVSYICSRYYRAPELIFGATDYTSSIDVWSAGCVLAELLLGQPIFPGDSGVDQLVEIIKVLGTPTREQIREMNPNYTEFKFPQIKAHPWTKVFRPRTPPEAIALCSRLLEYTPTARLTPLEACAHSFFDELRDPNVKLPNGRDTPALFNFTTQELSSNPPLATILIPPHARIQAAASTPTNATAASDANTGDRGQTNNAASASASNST

Structure (SMILES) | IC50 [1] [nM] | Activity (Bacillus subtilis) | Activity (Erwinia amylovora) | Activity (Escherichia coli) | Activity (Pseudomonas fluorescens) | Activity (Cutibacterium acnes) | Activity (Pseudomonas aeruginosa) | Activity [2] | Activity (Ralstonia solanacearum) | Activity [3] | Activity (Mammaliicoccus lentus) | Activity (Xanthomonas campestris) | Activity (Nakaseomyces glabratus) | Activity (Zymoseptoria tritici) | Activity [4] | Activity (HepG2) | Activity (HT-29) | Activity (Parastagonospora nodorum)
O=C1OCC(Cc2ccc(O)cc2)=C1c1ccc(O)cc1 [EUTYPOID B] | 780 | inactive | inactive | inactive | inactive | inactive | inactive | inactive | inactive | inactive | inactive | inactive | inactive | inactive | Non-toxic | inactive | inactive | 
O=C1OCC(Cc2ccc(O)c(O)c2)=C1c1ccc(O)cc1 [EUTYPOID C] | 670 | inactive | inactive | inactive | inactive | inactive | inactive | inactive | inactive | inactive | inactive | inactive | inactive | inactive | Non-toxic | inactive | inactive | 
O=C1OCC(Cc2ccc(O)c(O)c2)=C1c1cc(O)cc(O)c1 [EUTYPOID E] | 2260 | inactive | inactive | inactive | inactive | inactive | inactive | inactive | inactive | inactive | inactive | inactive | inactive | inactive | Non-toxic | inactive | inactive | 
O=C1OCC(Cc2ccc(O)cc2)=C1c1cc(O)cc(O)c1 [EUTYPOID D] | 4080 | inactive | inactive | inactive | inactive | inactive | inactive | inactive | inactive | inactive | inactive | inactive | inactive | inactive | Non-toxic | inactive | inactive | 
O=C1OCC(Cc2ccccc2)=C1c1ccccc1 |  |  |  |  |  |  |  |  |  |  |  |  |  |  |  |  |  | Active
